The values that follow come from publication PMC6707612, “Cyclic-di-GMP binds to histidine kinase RavS to control RavS-RavR phosphotransfer and regulates the bacterial lifestyle transition between virulence and swimming” (PLoS Pathogens, 2019).

The target in one assay is T1, RavS^ΔN (Xanthomonas campestris pv. campestris, UniProt Q8P9A6).
T1 sequence (Q8P9A6 352-697): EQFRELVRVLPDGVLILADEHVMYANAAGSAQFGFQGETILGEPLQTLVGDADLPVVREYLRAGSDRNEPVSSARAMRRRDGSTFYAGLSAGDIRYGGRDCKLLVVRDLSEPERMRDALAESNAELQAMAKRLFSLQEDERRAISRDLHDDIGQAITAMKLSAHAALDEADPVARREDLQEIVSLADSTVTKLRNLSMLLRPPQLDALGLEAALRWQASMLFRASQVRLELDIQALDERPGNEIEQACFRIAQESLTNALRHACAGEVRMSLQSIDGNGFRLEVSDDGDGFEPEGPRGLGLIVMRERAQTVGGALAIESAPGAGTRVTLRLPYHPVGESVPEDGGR
As to the kind of experiment: in vitro autophosphorylation assay. It counts as biochemical. Conditions: 100 μM c-di-GMP, no RavR added. As to the method:
(a) c-di-GMP enhances RavS-RavR phosphotransfer in vitro. A total of 5 μM RavS^ΔN was autophosphorylated for 15 min by the addition of 10 μCi [γ-^32P]ATP. A total of 15 μM RavR^ΔEAL or RavR^ΔEAL(D496A) was added and incubated for 30 min at 25°C. A total of 100 μM c-di-GMP was added if necessary. The reactions were terminated with 5× SDS loading buffer before autoradiography. The experiment was repeated three times. (b) Time course analyses of the impact of c-di-GMP on the velocity of RavS-RavR phosphotransfer. The autophosphorylation and phosphotransfer reactions were set as mentioned in (a). Various concentrations of c-di-GMP were added to the reactions and isotopic signals (band intensities) of RavS~P were measured after autoradiography. (c–d) c-di-GMP triggered an increase in RavS-RavR phosphotransfer in a dose-dependent manner. […] (d) The phosphorylated level of RavS^ΔN~P was quantified by ImageJ and the EC50 value was estimated by Origin 8.5 software. […] The interaction between RavS^ΔTrM and various nucleotides, including fl-c-di-GMP, fl-cGMP and fl-c-di-AMP, were measured by microscale thermophoresis (MST). A total of 20 nM fluorescein-labelled nucleotides and increasing concentrations of proteins were incubated and measured by MST. The dissociation constant (Kd) was quantified to estimate the binding affinity. […]

The target of another assay is T2, RavR^ΔEAL (Xanthomonas campestris pv. campestris, UniProt Q8P9A7).
T2 sequence (Q8P9A7 with tags, fused parts or gaps): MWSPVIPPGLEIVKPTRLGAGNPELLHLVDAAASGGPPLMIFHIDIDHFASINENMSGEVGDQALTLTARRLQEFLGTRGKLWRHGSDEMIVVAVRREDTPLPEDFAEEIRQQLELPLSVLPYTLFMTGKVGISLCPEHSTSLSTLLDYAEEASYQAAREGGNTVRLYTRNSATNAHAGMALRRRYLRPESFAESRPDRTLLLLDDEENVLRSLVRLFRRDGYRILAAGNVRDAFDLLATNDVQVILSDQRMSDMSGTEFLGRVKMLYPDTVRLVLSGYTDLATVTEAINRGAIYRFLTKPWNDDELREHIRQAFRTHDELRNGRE
Description: microscale thermophoresis (MST) binding. The conditions noted are these: 20 nM fluorescein-labelled nucleotide, read-out: dissociation constant (Kd).

Several values for one entry are separate records, joined by “and”; a condition that tells them apart may be missing. Equal values may be shown once.

In the case of `Nc1nc2c(ncn2[C@@H]2O[C@@H]3COP(=O)(O)O[C@H]4[C@@H](O)[C@H](n5cnc6c(=O)[nH]c(N)nc65)O[C@@H]4COP(=O)(O)O[C@H]3[C@H]2O)c(=O)[nH]1` [c-di-GMP, Cyclic di-GMP], the “effect on RavS^ΔN autophosphorylation (autokinase activity)” value on RavS^ΔN is on record as “does not affect”.
In the case of `Nc1nc2c(ncn2[C@@H]2O[C@@H]3COP(=O)(O)O[C@H]4[C@@H](OC(=O)NCCCCCCNC(=O)c5ccc6c(c5)C(=O)OC65c6ccc(O)cc6Oc6cc(O)ccc65)[C@H](n5cnc6c(=O)[nH]c(N)nc65)O[C@@H]4COP(=O)(O)O[C@H]3[C@H]2O)c(=O)[nH]1` [fl-c-di-GMP, 2′-Fluo-AHC-c-di-GMP], the Kd at RavR^ΔEAL was 111 µM and > 80 µM.
